Source: patent US20070021485A1, “Aryl (or heteroaryl) azolylcarbinols” (priority 2005, published 2007)
pKi: −log10 of the molar value. Like-named read-outs stand apart in the source and are kept apart here.

Tests used:
rat bladder contractions = assay: Isovolumetric rhythmic bladder contractions in the anesthetized rat: amplitude and rate of the contractions; assay type: in vivo; details: for amplitude of the bladder contractions / rate of the bladder contractions: anesthetized rat, iv, 6.83, 13.7 and 27.3 mg/kg given as citrate, FIG. 2
Experimental: (1) Isovolumetric Rhythmic Bladder Contractions in the Anesthetized Rat
(a) Amplitude and Rate of the Contractions
Rat urinary bladder catheterized:
A pressure transducer is used to measure intravesical pressure (recording rate and amplitude of bladder contractions).
An infusion pump is used to fill bladder by 0.1 ml increments of saline until rhythmic contractions. After 15 minutes of constant interval bladder contractions, (R)-(+)-2-((1-methyl-1H-pyrazol-5-yl)(phenyl)methoxy-N-methylethanamine citrate in 6.83, 13.7, and 27.3 mg/kg dosages; (S)-(−)-2-((1-methyl-1H-pyrazol-5-yl)(phenyl)methoxy-N-methylethanamine citrate in 6.83, 13.7 and 27.3 mg/kg dosages; and oxybutinyn in a 1 mg/kg dose were administered by iv. Measurements were made before and then during 15 minute intervals after each administration.
Aditionally the compound 1, accoridng example 1, and its enantiomers were active in rat urinary incontinence test. They inhibited the amplitude of the rat bladder contractions. The compounds were evaluated in a model of cystometry in the anesthesized rat, looking for the effects on isovolumetric rhythmic bladder contractions. The method, which evaluatesthe effects of the test substances on lower urinary tract function, followed that described by Y. Kimura et al. ( Int. J. Urol. 1996, 3: 218-227).

reserpine-induced ptosis = assay: Inhibition of reserpine-induced ptosis in mice; assay type: in vivo; details: for ED50: Mus musculus, read-out: Inhibition test Reserpin ptosis In mice ED50
Experimental: It has been used the test described by S.Garattini et al. (Med.Exp. 1960, 3: 315-320). The antidepressant drugs inhibit the parpebral ptosis induced by reserpine ([…], i.p.) in mice.

rat urinary bladder = assay: Urodynamic parameters (cystometry) in the anesthetized rat; assay type: in vivo; details: for mean volume of micturition / number of micturitions / volume for the first micturition: anesthetized rat, iv, duloxetine 1 mg/kg, cizolirtine 10 mg/kg, N-desmethyl metabolite 10 mg/kg, vs control vehicle, FIG. 3
Experimental: Rat urinary bladder was catheterized. A pressure transducer was used to measure intavesical pressure in anesthetized rats treated with 1 mg/kg duloxetine, 10 mg/kg cizolirtine, 10 mg/kg N-desmethyl metabolite or a control vehicle. Recordings were made of the infusion volume, pressure needed for micturition, number of micturitions during the infusion.
An infusion pump was used to fill bladder with saline until micturition. After stabilization, treatment compounds or control vehicle were administered by iv. Fifteen minutes after administration, saline infusion was started and urodynamic parameters were again analyzed. The number of micturitions, volume for first micturition, mean volume for micturition, and AUC of intravesical pressure were measured for each of the treatment groups and compared to the control.
(§1) This is performed on Sprague-Dawley male and female anaesthetized rats. Left carotid artery is inserted with a catheter for the continuous measure of systemic arterial pressure and cardiac frequency. After an incision to the abdomen, a catheter is inserted on the bladder and connected to a pressure transducer and to an infusion pump. The urethra is ligated and the bladder is voided. After stabilization period, saline solution is infused (0.9 % NaC1solution at 5 ml/h rate) and the basal parameters of intravesical pressure are measured for 20 min. Cystometry parameters are the infusion volume and pressure needed to activate the micturition reflex, and the micturition frequency. After stabilization period, the compounds are administered i.v. and, 15 min. later, saline is infused and urodynamic parameters are measured again to compare with basal.

[1] = system: acetic acid-induced bladder hyperactivity; assay: Protection against acetic acid-induced bladder hyperactivity in the anesthetized rat; assay type: in vivo; details: for protection of the rat bladder against the acetic acid-induced hyperactivity: cizolirtine 5, 10 mg/kg i.v.; for protection of the rat bladder against the acetic acid-induced hyperactivity / number of micturitions / volume for the first micturition: duloxetine 1 mg/kg; for number of micturitions / volume for the first micturition: cizolirtine 5 and 10 mg/kg, vs control, FIG. 4
Experimental: (a) Protection Against Acetic Acid-induced Hyperactivity: Urodynamic Parameters
Anesthetized rat bladders were treated with […], […] and 1 mg/kg duloxetine, […] and 5 mg/kg cizolirtine, […] and 10 mg/kg cizolirtine, or […] and 10 mg/kg N-desmethyl metabolite. The number of micturitions, the volume for first micturition, micturition volume, intravesical pressure increase, and AUC of intravesical pressure were measured for each of the treatment groups and the control.
as §1
Further the effect on acetic acid-induced bladder hiperactivity is tested.

[2] = system: aversive situation-induced immobility; assay: Inhibition of immobility induced by an aversive situation (tail suspension) in mice; assay type: in vivo; details: Mus musculus, ip, read-out: Immobility test Tail hanging In mice ED50
Experimental: The test was described by R. D. Porsolt et al. (Arch.int.Pharmacodyn. 1987, 288: 11-30). Following suchg method, the compound to be studied was administered by ip route, and 30 minutes later mice were submitted to an aversive situation: they were tail suspended in the […] for 6 minutes. Mobility time and movements power were authomatically measured and registered in the above mentioned device. The potential antidepressant reduce the mice immobility time.

[3] = system: urinary incontinence secondary to overactive bladder or idiopathic urge incontinence; assay: Clinical Study B, placebo controlled, 100 mg twice daily; assay type: in vivo, human; details: patients, 100 mg by oral route twice daily, 84 days
Experimental: (§2) In a placebo controlled clinical trial 135 patients are randomized. Patients are from both genders with ages between 18 and 80 years (inclusive). They have urinary incontinence secondary to overactive bladder (detrusor hyperreflexia or instability) or idiopathic urge incontinence confirmed by the medical history and urodynamic study.
One group of patients is treated with 2-((1-methyl-1H-pyrazol-5-yl)(phenyl)methoxy-N-methylethanamine 100 mg formulated as an oral administration (twice daily). Another group is treated with placebo matching capsules, […], with administration by oral route. The patients are treated for 84 days.
Efficacy is measured by the difference from baseline in the mean number of voidings/24 hours as provided by a 7-day frequency-volume chart in the end of study visit.
(§3) The primary efficacy analysis is based on the PP population. The treatment groups are compared with respect to the treatment effect, defined as the difference between treatment groups for changes from baseline in the number of voidings per 24 hours.
Additionally, the percentage of responders is compared based on analysis of the number of patients having <8 voidings per day or experienced complete dryness or both., and statistical significance determined.

[4] = system: urinary incontinence secondary to overactive bladder or idiopathic urge incontinence; assay: Clinical Study A, placebo controlled, 50 mg twice a day; assay type: in vivo, human; details: patients
Experimental: as §2, with “79” for “135”
One group of patients is treated with 2-((1-methyl-1H-pyrazol-5-yl)(phenyl)methoxy-N-methylethanamine, 50 mg, twice a day, formulated as a tablet for oral administration. Another group is treated with placebo in matching tablets, twice a day, with administration by oral route. The patients are treated for 84 days.
Efficacy is measured by the difference from baseline in the mean number of leakages, micturitions, urgencies and voidings/24 hours as provided by a 7-day frequency-volume chart in the end of the study visit.
as §3
Additionally, the percentage of responders is compared based on an analysis of the number of patients having <8 voidings/day or experiencing complete dryness or both, and statistical significance determined.

[5] = system: immobility in forced swimming; assay: Water despair test (forced swimming) in rats; assay type: in vivo; details: for ED50: read-out: Swimming Test Forced swimming In rats ED50; for Swimming Test Forced swimming In rats, activity at single dose: 40 mg/Kg
Experimental: The test was described by R. D. Porsolt et al. (Europ.J.Pharmacol. 1978, 47:379-391). […] The following day, 24 hours later, were let to swim in the water, but only for 5 minutes, and it was […] immobility time. The compounds to be studied were administered by ip route, 60 minutes before the test. The antidepressants reduce the immobility time. […] (Tablel).

serotonin transporter = biological target: T1, serotonin transporter (Rattus norvegicus, UniProt P31652); assay: Serotonin transporter affinity, (3H)paroxetine binding in rat brain cortex; details: (3H)paroxetine radioligand, serotonin 100 μM non specific
T1 construct: from tissue; host or cells: rat brain cortex
Experimental: This affinity was studied in rat brain cortex, using (3H)paroxetine ([…]) as radioligand and 5-Hydroxytriptamine (serotonin)(100 μM) as non specific ligand.

[6] = N-desmethyl metabolite 10 mg/kg
[7] = acetic acid-treated rat bladder, N-desmethyl metabolite 10 mg/kg
[8] = 50 mg twice a day oral, 84 days, compared with placebo
[9] = mice, i.p., 30 minutes before tail suspension for 6 minutes
[10] = anaesthetized Sprague-Dawley rats, 10 mg/kg i.v., vs basal
[11] = acetic acid 0.3% v/v infusion, 10 mg/kg i.v.
[12] = acetic acid 0.3% v/v infusion, 10 mg/kg i.v. acute

T1 sequence (P31652 whole entry): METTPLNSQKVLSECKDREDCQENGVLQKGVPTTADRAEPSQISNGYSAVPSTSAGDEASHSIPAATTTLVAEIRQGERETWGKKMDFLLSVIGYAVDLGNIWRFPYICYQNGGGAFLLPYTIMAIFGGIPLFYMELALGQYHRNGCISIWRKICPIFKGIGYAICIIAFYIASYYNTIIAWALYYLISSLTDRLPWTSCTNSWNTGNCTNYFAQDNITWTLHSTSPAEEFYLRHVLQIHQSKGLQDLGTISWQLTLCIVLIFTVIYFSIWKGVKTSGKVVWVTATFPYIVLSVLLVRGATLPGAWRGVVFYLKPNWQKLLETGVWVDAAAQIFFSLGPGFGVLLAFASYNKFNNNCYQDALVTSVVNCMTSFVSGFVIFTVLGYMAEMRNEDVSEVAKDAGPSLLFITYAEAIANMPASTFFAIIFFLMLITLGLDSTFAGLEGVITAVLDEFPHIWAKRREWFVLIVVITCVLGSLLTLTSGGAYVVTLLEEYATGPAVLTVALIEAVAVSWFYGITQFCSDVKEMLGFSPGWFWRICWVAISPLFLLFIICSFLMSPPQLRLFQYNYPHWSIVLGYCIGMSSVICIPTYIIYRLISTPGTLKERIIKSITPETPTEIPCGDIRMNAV

Which results are given for `CNCCO[C@@H](c1ccccc1)c1ccnn1C` [2-((S)-(1-methyl-1H-pyrazol-5-yl)(phenyl)methoxy)-N-methylethanamine]?
amplitude of the bladder contractions (rat bladder contractions): inhibited; rate of the bladder contractions (rat bladder contractions): without modifying the rate

With `CNCCO[C@H](c1ccccc1)c1ccnn1C` [(R)-2-((1-methyl-1H-pyrazol-5-yl)(phenyl)methoxy)-N-methylethanamine] as the compound, how does the “amplitude of the bladder contractions” value (rat bladder contractions) read?
The value was “inhibited”.

What about the “rate of the bladder contractions” value (rat bladder contractions) of the same compound?
The value was “without modifying the rate”.

Which results are given for `CNCCOC(c1ccccc1)c1ccnn1C` (centres unmarked) [Compound 1, 2-((1-methyl-1H-pyrazol-5-yl)(phenyl)methoxy)-N-methylethanamine]?
ED50 (reserpine-induced ptosis): 14 mg/kg; amplitude of the rat bladder contractions, rat urinary incontinence test (rat bladder contractions; cystometry in the anesthesized rat, method of Kimura et al.): inhibited; mean volume of micturition (rat urinary bladder): increased; number of micturitions (rat urinary bladder): decreased; volume for the first micturition (rat urinary bladder): increased; protection of the rat bladder against the acetic acid-induced hyperactivity [1, 6]: protected; number of micturitions (sentence on FIG. 5) ([1]; acetic acid-treated rat bladder, N-desmethyl metabolite 10 mg/kg, FIG. 5): increased; number of micturitions [1, 7]: reduced; volume for the first micturition [1, 7]: increased; ED50 [2]: 17 mg/kg; bladder overactivity [3]: improve bladder overactivity; urge incontinence caused by overactive bladder, majority of efficacy variables ([4]; 50 mg twice a day by oral route, compared to placebo): clinically significant improvements; mean number of daily leakages [4, 8]: significant reduction; mean number of daily micturitions [4, 8]: significant reduction; mean number of daily urgencies [4, 8]: significant reduction; mean number of daily voidings [4, 8]: significant reduction; ED50 ([5]; Rattus norvegicus, ip): 33 mg/kg; pKi (serotonin transporter): 6.94

For `CN[C@H]1CC[C@@H](c2ccc(Cl)c(Cl)c2)c2ccccc21` [Sertraline], which ED50 (reserpine-induced ptosis; mice, p.o., reserpine i.p.) is on record?
Its ED50 is 17 mg/kg.

What about the ED50 [2, 9] of the same compound?
The ED50 was 8 mg/kg.

What about the ED50 ([5]; Rattus norvegicus, ip, rats, i.p., 60 minutes before the test) of the same compound?
Its ED50 is 28 mg/kg.

What does the source list for `CNCCOC(c1cccs1)c1ccnn1C.O=C(O)C(=O)O` (centres unmarked) [Compound 2, 2-((1-methyl-1H-pyrazol-5-yl)(thiophen-2-yl)methoxy)-N-methylethanamine; oxalate]?
Inhibition test Reserpin ptosis In mice, activity at single dose (reserpine-induced ptosis; mice, p.o., 40 mg/Kg): inactive; ED50 [2, 9]: 33 mg/kg; Swimming Test Forced swimming In rats, activity at single dose ([5]; rats, i.p.): inactive

Which “mean volume of micturition” value (rat urinary bladder) does the source give for `CNCC[C@H](Oc1cccc2ccccc12)c1cccs1` [duloxetine] here?
The value was “increased”.

What about the number of micturitions (rat urinary bladder) of the same compound?
Its number of micturitions is “decreased”.

What about the “volume for the first micturition” value (rat urinary bladder) of the same compound?
The value was “increased”.

And the “protection of the rat bladder against the acetic acid-induced hyperactivity” value [1, 6]?
The value was “protected”.

And the number of micturitions [1, 7]?
The number of micturitions was “reduced”.

What about the “volume for the first micturition” value [1, 7] of the same compound?
The value was “increased”.

With `CNCCCN1c2ccccc2CCc2ccccc21` [Desipramine] as the compound, how does the inhibition at 30 mg/kg ([5]; Rattus norvegicus, ip, rats, i.p., 30 mg/Kg, read-out: Swimming Test Forced swimming In rats, I (inhibition) at single dose) read?
The inhibition at 30 mg/kg was 32%.

With `CN(C)CCOC(c1ccccc1)c1ccnn1C` (centres unmarked) [Cizolirtine] as the compound, how does the ED50 (reserpine-induced ptosis; mice, p.o., reserpine i.p.) read?
Its ED50 is 26 mg/kg.

And the bladder contractility (rat urinary bladder; [10])?
Its bladder contractility is “no alteration”.

And the bladder pressure (rat urinary bladder; [10])?
Its bladder pressure is “significantly reduced”.

What about the mean micturition volume (rat urinary bladder; [10]) of the same compound?
The mean micturition volume was “significantly increased”.

What about the micturition frequency (rat urinary bladder; [10]) of the same compound?
Its micturition frequency is “trends to decrease”.

What about the “volume required for first micturition” value (rat urinary bladder; [10]) of the same compound?
Its value is “augment”.

And the “mean volume of micturition” value (rat urinary bladder)?
The value was “increased”.

And the number of micturitions (rat urinary bladder)?
The number of micturitions was “decreased”.

What about the “volume for the first micturition” value (rat urinary bladder) of the same compound?
The value was “increased”.

What about the “protection of the rat bladder against the acetic acid-induced hyperactivity” value [1, 6] of the same compound?
The value was “protected”.

What about the “acetic acid-caused increase of bladder pressure” value [1, 11] of the same compound?
The value was “reversed”.

And the “contractile capacity of the bladder” value [1, 11]?
The value was “Neither acetic acid nor cizolirtine significantly affected”.

And the “acetic acid-caused increase of micturition frequency” value [1, 12]?
Its value is “significantly reduced”.

What about the “acetic acid-caused reduction of micturition volume” value [1, 12] of the same compound?
The value was “significantly reduced”.

What about the number of micturitions [1, 7] of the same compound?
Its number of micturitions is “reduced”.

And the “volume for the first micturition” value [1, 7]?
The value was “increased”.

What about the ED50 [2, 9] of the same compound?
Its ED50 is 17 mg/kg.

And the “Swimming Test Forced swimming In rats, activity at single dose” value ([5]; rats, i.p.)?
Its value is “inactive”.
